Experimental data published in article PMC11877502, “Cytotoxic Stilbenoids, Hetero- and Homodimers of Homoisoflavonoids from Prospero autumnale” (Journal of Natural Products, 2025).
Like-named read-outs stand apart in the source and are kept apart here.

Legend:
HEP3B [1] = test: DNA content (cell cycle) analysis; type: cell-based, human; settings: 48 h, DNA content by flow cytometry
Procedure: (§1) To investigate cell cycle progression, cells were seeded as 5 × 10^5 cells per 60 mm dish and incubated overnight for attachment. After incubating with the selected compounds for 48 h, cells were detached with Trypsin-EDTA, washed once with DPBS, and fixed with ice-cold 70% EtOH by storing tubes at 4 °C for an hour. Then, EtOH was discarded by centrifuging cells, and the pellet was suspended in 500 μL cell cycle kit reagent (Beckman Coulter #C03551). Tubes were incubated at room temperature under the dark for 30 min. The experiment was done on triplicate, and 5 × 10^4 cells per test were acquired at a medium flow rate with the Beckman Coulter DxFLEX flow cytometry system. Analyses were performed with ModFit LT version 4.0.

HEP3B [2] = test: MTS cytotoxicity assay; type: cell-based; settings: Homo sapiens, 48 h, triplicate
Procedure: (§2) Stock solutions of extracts and compounds were prepared by dissolving in DMSO (Sigma-Aldrich, no. D2650) at the concentrations of 100 mg/mL and 100 mM for extracts and compounds, respectively. […] Untreated cells were used as a control, while plain culture medium was used as a blank. Viability was determined with MTS Assay (Abcam #ab197010) according to the manufacturer’s instructions. Absorbance at 490 nm was measured with a spectrophotometer (Epoch, BioTek Instruments). Relative viability ratios were calculated with the equation given below, and IC50 values were determined in GraphPad Prism (version 8.0). [drawing 2]

MDA-MB-231 [3] = test: MTS cytotoxicity assay; type: cell-based; settings: Homo sapiens, 48 h, triplicate
Procedure: as §2

DU145 [4] = test: MTS cytotoxicity assay; type: cell-based; settings: Homo sapiens, DU-145, 48 h, triplicate
Procedure: as §2

PC3 [5] = test: MTS cytotoxicity assay; type: cell-based; settings: Homo sapiens, PC-3, 48 h, triplicate
Procedure: as §2

MCF7 [6] = test: MTS cytotoxicity assay; type: cell-based; settings: Homo sapiens, 48 h, triplicate
Procedure: as §2

HCT116 [7] = test: MTS cytotoxicity assay; type: cell-based; settings: Homo sapiens, HCT-116, 48 h, triplicate
Procedure: as §2

HEPG2 [8] = test: MTS cytotoxicity assay; type: cell-based; settings: Homo sapiens, 48 h, triplicate, read-out: IC50 ± SEM HEPG2
Procedure: as §2

LoVo [9] = test: MTS cytotoxicity assay; type: cell-based; settings: Homo sapiens, 48 h, triplicate, read-out: IC50 ± SEM LoVo
Procedure: as §2

[10] = tested on: L929 nontumor mouse fibroblast cell line; test: MTS cytotoxicity assay, nontumor cell line; type: cell-based; settings: 48 h, triplicate
Procedure: as §2

HEP3B [11] = test: Annexin V/propidium iodide staining; type: cell-based, human; settings: 48 h at IC50 concentration, flow cytometry
Procedure: (§3) Apoptosis, necrosis, and viability were analyzed by Annexin V-FITC and […] (PI) staining. For this purpose, cells were seeded at 5 × 10^5 cells per 60 mm dish and incubated overnight to allow attachment. Then, cells were treated with the selected compounds (1, 2, 4, and 10) for 48 h at respective IC50 concentrations. For flow cytometric analysis, cells were detached with Trypsin-EDTA solution (Thermo Fisher Scientific #25200056), washed with Dulbecco’s phosphate buffered saline (DPBS, Thermo Fisher Scientific #14190094) solution, and suspended in 1 mL of ice-cold Annexin V Binding Buffer (BioLegend #422201). Cells were then stained with 1 μL of Annexin V-FITC (Biovision #1001) and 1 μL PI (Thermo Fisher Scientific # P1304MP, diluted to 250 μg/mL in DPBS) by incubating cells on ice for 15 min in the dark. Cells were then immediately analyzed on a Beckman Coulter DxFLEX flow cytometry system. Each analysis was performed in triplicate, and 25 × 10^3 events were counted for each tube. Evaluations were done with CytEXPERT software.

[12] = tested on: human cancer cell lines (HCT116, LoVo, DU145, PC3, HEP3B, HEPG2, MCF7, MDA-MB-231); test: MTS cytotoxicity assay, panel statements; type: cell-based; settings: 48 h, span over compounds and cell lines, read-out: IC50 toward one or more cancer cell lines
Procedure: as §2

MDA-MB-231 [13] = test: Annexin V/propidium iodide staining; type: cell-based, human; settings: 48 h at IC50 concentration, flow cytometry
Procedure: (§4) Apoptosis, necrosis, and viability were analyzed by Annexin V-FITC and […] (PI) staining. For this purpose, cells were seeded at 5 × 10^5 cells per 60 mm dish and incubated overnight to allow attachment. […] Cells were then immediately analyzed on a Beckman Coulter DxFLEX flow cytometry system. Each analysis was performed in triplicate, and 25 × 10^3 events were counted for each tube. Evaluations were done with CytEXPERT software.

LoVo [14] = test: Annexin V/propidium iodide staining; type: cell-based, human; settings: 48 h at IC50 concentration, flow cytometry
Procedure: as §4

MDA-MB-231 [15] = test: DNA content (cell cycle) analysis; type: cell-based, human; settings: 48 h, DNA content by flow cytometry
Procedure: as §1

MCF7 [16] = test: DNA content (cell cycle) analysis; type: cell-based, human; settings: 48 h, DNA content by flow cytometry
Procedure: as §1

HCT116 [17] = test: DNA content (cell cycle) analysis; type: cell-based, human; settings: 48 h, DNA content by flow cytometry
Procedure: as §1

HEPG2 [18] = test: DNA content (cell cycle) analysis; type: cell-based, human; settings: 48 h, DNA content by flow cytometry
Procedure: as §1

LoVo [19] = test: DNA content (cell cycle) analysis; type: cell-based, human; settings: 48 h, DNA content by flow cytometry
Procedure: as §1

MCF7 [20] = test: Annexin V/propidium iodide staining; type: cell-based, human; settings: 48 h at IC50 concentration, flow cytometry
Procedure: as §3

HCT116 [21] = test: Annexin V/propidium iodide staining; type: cell-based, human; settings: 48 h at IC50 concentration, flow cytometry
Procedure: as §3

HEPG2 [22] = test: Annexin V/propidium iodide staining; type: cell-based, human; settings: 48 h at IC50 concentration, flow cytometry
Procedure: as §3

PC3 [23] = test: DNA content (cell cycle) analysis; type: cell-based, human; settings: 48 h, DNA content by flow cytometry
Procedure: as §1

DU145 [24] = test: Annexin V/propidium iodide staining; type: cell-based, human; settings: 48 h at IC50 concentration, flow cytometry
Procedure: as §3

PC3 [25] = test: Annexin V/propidium iodide staining; type: cell-based, human; settings: 48 h at IC50 concentration, flow cytometry
Procedure: as §3

[26] = read-out: IC50 ± SEM MDA-MB-231

SMILES	IC50 (HEP3B [2]; read-out: IC50 ± SEM HEP3B)	IC50 (MDA-MB-231 [3]; [26])	IC50 (DU145 [4]; read-out: IC50 ± SEM DU145)	IC50 (PC3 [5]; read-out: IC50 ± SEM PC3)	IC50 (MCF7 [6]; read-out: IC50 ± SEM MCF7)	IC50 (HCT116 [7]; read-out: IC50 ± SEM HCT116)	IC50 (HEPG2 [8])	IC50 (LoVo [9])	IC50 ([10]; read-out: IC50 ± SEM L929)	IC50 [12]	apoptosis/necrosis vs control, LoVo (LoVo [14])	cell cycle effect, LoVo (LoVo [19])	other results
O=C1/C(=C/c2ccc(O)cc2)COc2cc(O)cc(O)c21 [Compound 4, (E)-4′-O-demethyleucomin]	33.7 ± 3 µM	77.5 ± 3.9 µM	> 100 µM	88.1 ± 8.6 µM	95.3 ± 4.7 µM	45.8 ± 8.4 µM	> 100 µM	40.4 ± 2.9 µM	> 100 µM	8.2 to 37.6 µM			cell cycle effect, HEP3B (HEP3B [1]): G2/M phase arrest; apoptosis/necrosis vs control, HEP3B (HEP3B [11]): significantly increased early apoptosis along with necrosis
COc1ccc([C@H]2c3c(/C=C/c4ccc(O)cc4)cc(OC)c(C)c3O[C@@H]3Oc4cc(O)cc(O)c4C(=O)[C@@H]32)cc1 [Compound 10, prosperin C]	59.9 ± 6.9 µM	25.5 ± 2.4 µM	40.1 ± 2.8 µM	36.7 ± 2.5 µM	25.2 ± 5.1 µM	19.3 ± 3.1 µM	24 ± 2.2 µM	16.7 ± 0.8 µM	29.7 ± 1.7 µM	8.2 to 37.6 µM	apoptosis along with necrosis	G0/G1 phase arrest	apoptosis/necrosis vs control, MDA-MB-231 (MDA-MB-231 [13]): increased apoptosis and necrosis; cell cycle effect, MDA-MB-231 (MDA-MB-231 [15]): G0/G1 phase arrest; cell cycle effect, MCF7 (MCF7 [16]): G0/G1 phase arrest; cell cycle effect, HCT116 (HCT116 [17]): G0/G1 phase arrest; cell cycle effect, HEPG2 (HEPG2 [18]): slight S phase decrease; apoptosis/necrosis vs control, MCF7 (MCF7 [20]): increased apoptosis and necrosis; apoptosis/necrosis vs control, HCT116 (HCT116 [21]): significant increase in apoptosis; apoptosis/necrosis vs control, HEPG2 (HEPG2 [22]): higher late apoptosis and necrosis
COc1cc(O)cc(/C=C/c2ccc(O)cc2)c1 [Compound 2, pinostilbene]	93.5 ± 8.9 µM	23.3 ± 1.4 µM	> 100 µM	88.7 ± 10.9 µM	95.7 ± 15 µM	71.3 ± 12.6 µM	51.8 ± 10 µM	8.2 ± 0.4 µM	13.4 ± 1.7 µM	8.2 to 37.6 µM	apoptosis along with necrosis	S phase arrest	apoptosis/necrosis vs control, MDA-MB-231 (MDA-MB-231 [13]): more efficient in inducing apoptosis compared to 10; cell cycle effect, MDA-MB-231 (MDA-MB-231 [15]): S phase arrest
COc1c(O)c(OC)c2c(c1O)OC[C@@H](Cc1ccc(O)cc1)C2=O [Compound 7, 3R-(4′-hydroxybenzyl)-6,8-dihydroxy-5,7-dimethoxy-4-chromanone]	> 100 µM	> 100 µM	> 100 µM	> 100 µM	> 100 µM	> 100 µM	> 100 µM	> 100 µM	> 100 µM				
COc1ccc(C(c2c(O)cc3c(c2O)C(=O)/C(=C/c2ccc(O)cc2)CO3)c2coc3cc(O)cc(O)c3c2=O)cc1 (stereo not shown) [Compound 9, prosperin B]	> 100 µM	> 100 µM	> 100 µM	> 100 µM	> 100 µM	75.8 ± 8 µM	> 100 µM	> 100 µM	> 100 µM				
COc1cccc2c1C(=O)c1c(O)c3c(c(O)c1C2=O)C[C@@](O)(C(=O)CO)C[C@@H]3O[C@H]1C[C@H](N)[C@H](O)[C@H](C)O1 [doxorubicin, reference compound]	1.1 ± 0.1 µM	2.3 ± 0.3 µM	5.9 ± 0.4 µM	0.9 ± 0.1 µM	2.3 ± 0.3 µM	0.9 ± 0.1 µM		2.4 ± 0.2 µM	> 100 µM				IC50 (HEP3B [2]; read-out: IC50 ± SEM HEP3B, extract/fraction): 1.1 ± 0.07 µg/mL; IC50 (MDA-MB-231 [3]; read-out: IC50 ± SEM MDA-MB-231, extract/fraction): 2.33 ± 0.33 µg/mL; IC50 (DU145 [4]; read-out: IC50 ± SEM DU145, extract/fraction): 5.93 ± 0.38 µg/mL; IC50 (PC3 [5]; read-out: IC50 ± SEM PC3, extract/fraction): 0.88 ± 0.08 µg/mL; IC50 (MCF7 [6]; read-out: IC50 ± SEM MCF7, extract/fraction): 2.32 ± 0.28 µg/mL; IC50 (HCT116 [7]; read-out: IC50 ± SEM HCT116, extract/fraction): 0.86 ± 0.14 µg/mL; IC50 ([10]; read-out: IC50 ± SEM L929, extract/fraction): > 100 µg/mL
COc1cc(/C=C/c2cc(O)c(C)c(O)c2)ccc1O [Compound 3, scillabene A]	82.7 ± 3.9 µM	> 100 µM	> 100 µM	> 100 µM	> 100 µM	> 100 µM	> 100 µM	83.4 ± 3.9 µM	> 100 µM				
COc1cc(/C=C/c2ccc(O)cc2)cc(O)c1C [Compound 1, 3,4′-dihydroxy-4-methyl-5-methoxystilbene]	59.8 ± 4.2 µM	79.6 ± 5.6 µM	29.7 ± 4.4 µM	21.3 ± 2.1 µM	53.5 ± 9.1 µM	54.6 ± 5.5 µM	37.6 ± 5.3 µM	10.6 ± 0.5 µM	33.7 ± 3.9 µM	8.2 to 37.6 µM	apoptosis along with necrosis	S phase arrest	cell cycle effect, PC3 (PC3 [23]): S phase arrest; apoptosis/necrosis vs control, DU145 (DU145 [24]): promoting apoptosis and necrosis; apoptosis/necrosis vs control, PC3 (PC3 [25]): promoting apoptosis and necrosis
